# Laboratory results as given in USRE48097E1, “Cephem compounds, their production and use” (priority 2015, dated 2020).
# Where two headings read alike, the source gives them in different places.
# Tests used:
# [1] = test system: S. aureus 3136; experiment: MIC against S. aureus 3136; type: cell-based; conditions: Table 2, S. aureus 3136, MSSA
# Text: (§1) Without limitation, the present cephem compounds alone, or in combination with one or more β-lactamase inhibitors, may provide improved antibacterial efficacy, particularly in antibiotic-resistant bacterial strains. It is believed that the present compounds may be structurally different from known compounds and, as a result, may be more basic in nature. It is an advantage that the present compounds may extend the spectrum of effective bacterial compounds, particularly against previously-resistant bacteria (e.g. ESKAPE organisms), and/or gram negative bacteria, without significant side effects. In a preferred embodiment, the present cephem compound may comprise reference compound ceftazidime, which may be used alone, or in combination with one or more β-lactamase inhibitors, such as NXL-104. As shown, the foregoing composition was tested for minimum inhibitory concentration (MIC, μg/mL) against bacteria listed in Tables 2-3.
# [2] = test system: S. aureus3137; experiment: MIC against S. aureus3137; type: cell-based, S. aureus; conditions: Table 2, S. aureus3137, MSSA
# Text: as §1
# [3] = test system: S. aureus 3147; experiment: MIC against S. aureus 3147; type: cell-based; conditions: Table 2, S. aureus 3147, MSSA
# Text: as §1
# [4] = test system: S. pneumoniae 2392; experiment: MIC against S. pneumoniae 2392; type: cell-based; conditions: Table 2, S. pneumoniae 2392, Pen R
# Text: as §1
# [5] = test system: C. freundii 2003; experiment: MIC against C. freundii 2003; type: cell-based; conditions: Table 2, C. freundii 2003, Caz R, IMP S
# Text: as §1
# [6] = test system: K. pneumoniae 4108; experiment: MIC against K. pneumoniae 4108; type: cell-based; conditions: K. pneumoniae 4108, KPC-3, TEM-166, SHV-12, SHV-141
# Experimental: (§2) As shown, the foregoing composition was tested for minimum inhibitory concentration (MIC, μg/mL) against bacteria listed in Tables 2-3.
# [7] = test system: E. coli 2671; experiment: MIC against E. coli 2671; type: cell-based; conditions: Table 2, E. coli 2671, VIM-19
# Text: as §1
# [8] = test system: E. coli 102; experiment: MIC against E. coli 102; type: cell-based; conditions: Table 2, E. coli 102, TEM-1
# Text: as §1
# [9] = test system: K. baumanii 4091; experiment: MIC against K. baumanii 4091; type: cell-based; conditions: Table 2, K. baumanii 4091, OXA-23
# Text: as §1
# [10] = test system: K. baumanii 4094; experiment: MIC against K. baumanii 4094; type: cell-based; conditions: Table 2, K. baumanii 4094, OXA-51
# Text: as §1
# [11] = test system: E. cloacae 2706; experiment: MIC against E. cloacae 2706; type: cell-based; conditions: Table 3, E. cloacae 2706, VIM-1, KPC-3
# Experimental: as §2
# [12] = test system: E. cloacae 2709; experiment: MIC against E. cloacae 2709; type: cell-based; conditions: Table 3, E. cloacae 2709, KPC-3, VIM-1
# Experimental: as §2
# [13] = test system: E. coli 4103; experiment: MIC against E. coli 4103; type: cell-based; conditions: Table 3, E. coli 4103, KPC-2, TEM-1, CMY-type
# Experimental: as §2
# [14] = test system: K. pneumoniae 2713; experiment: MIC against K. pneumoniae 2713; type: cell-based; conditions: Table 3, K. pneumoniae 2713, KPC-3, VIM-1
# Experimental: as §2
# [15] = Staphylococcus aureus, alone, read-out: MIC
# [16] = Streptococcus pneumoniae, alone, read-out: MIC
# [17] = Citrobacter freundii, alone, read-out: MIC
# [18] = Klebsiella pneumoniae, 4108, Table 2, alone, read-out: MIC
# [19] = Klebsiella pneumoniae, 4108, Table 3, alone, read-out: MIC
# [20] = Escherichia coli, alone, read-out: MIC
# [21] = Enterobacter cloacae, alone, read-out: MIC
# [22] = Klebsiella pneumoniae, alone, read-out: MIC
# [23] = Table 2, in combination with NXL-104
# [24] = Table 3, in combination with NXL-104
smiles,measurement,setting,value
"CC(C)(O/N=C(\C(=O)N[C@@H]1C(=O)N2C(C(=O)[O-])=C(C[n+]3ccc4c(ccn4Cc4ccc(C(=N)N)cc4)c3)CS[C@H]12)c1csc(N)n1)C(=O)O [Ex-1, (6R,7R)-7-{[(2Z)-2-(2-Amino-1,3-thiazol-4-yl)-2-{[(2-carboxypropan-2-yl)oxy]imino}acetyl]-amino}-3-{[1-(4-carbamimidoylbenzyl)-1H-pyrrolo[3,2-c]pyridin-5-ium-5-yl]methyl}-8-oxo-5-thia-1-azabicyclo[4.2.0]oct-2-ene-2-carboxylate]",MIC,[1]; [15],2 mg/L
same,MIC,[2]; [15],8 mg/L
same,MIC,[3]; [15],2 mg/L
same,MIC,[4]; [16],2 mg/L
same,MIC,[5]; [17],8 mg/L
same,MIC,[6]; [18],4 mg/L
same,MIC,[6]; [19],32 mg/L
same,MIC,[7]; [20],16 mg/L
same,MIC,[8]; [20],≤ 0.06 mg/L
same,MIC,"[9]; alone, read-out: MIC",16 mg/L
same,MIC,"[10]; alone, read-out: MIC",16 mg/L
same,MIC,[11]; [21],> 32 mg/L
same,MIC,[12]; [21],32 mg/L
same,MIC,[13]; [20],> 32 mg/L
same,MIC,[14]; [22],> 32 mg/L
"CC(C)(O/N=C(\C(=O)N[C@@H]1C(=O)N2C(C(=O)[O-])=C(C[n+]3ccc4c(ccn4Cc4cc(C(=N)N)cs4)c3)CS[C@H]12)c1csc(N)n1)C(=O)O [Example 5, (6R,7R)-7-{[(2Z)-2-(2-Amino-1,3-thiazol-4-yl)-2-{[(2-carboxypropan-2-yl)oxy]imino}acetyl]amino}-3-({1-[(4-carbamimidoylthiophen-2-yl)methyl]-1H-pyrrolo[3,2-c]pyridin-5-ium-5-yl}methyl)-8-oxo-5-thia-1-azabicyclo[4.2.0]oct-2-ene-2-carboxylate]",MIC,[1]; [15],2 mg/L
same,MIC,[1]; in combination with NXL-104,2.00 mg/L
same,MIC,[2]; [15],32 mg/L
same,MIC,[2]; in combination with NXL-104,4.00 mg/L
same,MIC,[3]; [15],2 mg/L
same,MIC,[3]; in combination with NXL-104,2.00 mg/L
same,MIC,[4]; [16],2 mg/L
same,MIC,[4]; in combination with NXL-104,1.00 mg/L
same,MIC,[5]; [17],8 mg/L
same,MIC,[5]; in combination with NXL-104,0.25 mg/L
same,MIC,[6]; [18],8 mg/L
same,MIC,[6]; [19],32 mg/L
same,MIC,[6]; [23],0.50 mg/L
same,MIC,[6]; [24],1 mg/L
same,MIC,[7]; [20],16 mg/L
same,MIC,[7]; in combination with NXL-104,16.00 mg/L
same,MIC,[8]; [20],≤ 0.06 mg/L
same,MIC,[8]; in combination with NXL-104,≤0.06 mg/L
same,MIC,"[9]; alone, read-out: MIC",8 mg/L
same,MIC,[9]; in combination with NXL-104,2.00 mg/L
same,MIC,"[10]; alone, read-out: MIC",16 mg/L
same,MIC,[10]; in combination with NXL-104,4.00 mg/L
same,MIC,[11]; [21],> 32 mg/L
same,MIC,[11]; in combination with NXL-104,32 mg/L
same,MIC,[12]; [21],32 mg/L
same,MIC,[12]; in combination with NXL-104,4 mg/L
same,MIC,[13]; [20],> 32 mg/L
same,MIC,[13]; in combination with NXL-104,4 mg/L
same,MIC,[14]; [22],> 32 mg/L
same,MIC,[14]; in combination with NXL-104,2 mg/L
"CC(C)(O/N=C(\C(=O)N[C@@H]1C(=O)N2C(C(=O)[O-])=C(C[n+]3ccccc3)CS[C@H]12)c1csc(N)n1)C(=O)O [CAZ, ceftazidime, reference compound]",MIC,[1]; alone,8.00 mg/L
same,MIC,[1]; in combination with NXL-104,8.00 mg/L
same,MIC,[2]; alone,32.00 mg/L
same,MIC,[2]; in combination with NXL-104,32.00 mg/L
same,MIC,[3]; alone,8.00 mg/L
same,MIC,[3]; in combination with NXL-104,8.00 mg/L
same,MIC,[4]; alone,16.00 mg/L
same,MIC,[4]; in combination with NXL-104,16.00 mg/L
same,MIC,[5]; alone,4.00 mg/L
same,MIC,[5]; in combination with NXL-104,1.00 mg/L
same,MIC,"[6]; Table 2, alone",16.00 mg/L
same,MIC,[6]; [23],4.00 mg/L
same,MIC,"[6]; Table 3, alone",>32 mg/L
same,MIC,[6]; [24],4 mg/L
same,MIC,[7]; alone,32.00 mg/L
same,MIC,[7]; in combination with NXL-104,32.00 mg/L
same,MIC,[8]; alone,0.12 mg/L
same,MIC,[8]; in combination with NXL-104,0.12 mg/L
same,MIC,[9]; alone,>32 mg/L
same,MIC,[9]; in combination with NXL-104,16.00 mg/L
same,MIC,[10]; alone,>32 mg/L
same,MIC,[10]; in combination with NXL-104,32.00 mg/L
same,MIC,[11]; alone,>32 mg/L
same,MIC,[11]; in combination with NXL-104,32 mg/L
same,MIC,[12]; alone,>32 mg/L
same,MIC,[12]; in combination with NXL-104,8 mg/L
same,MIC,[13]; alone,>32 mg/L
same,MIC,[13]; in combination with NXL-104,16 mg/L
same,MIC,[14]; alone,>32 mg/L
same,MIC,[14]; in combination with NXL-104,8 mg/L
